Source: patent US20240228458A1, “PYRIMIDINE DERIVATIVE HAVING PROTEIN KINASE INHIBITORY ACTIVITY, AND THERAPEUTIC PHARMACEUTICAL COMPOSITION COMPRISING SAME” (THERAPEX CO., LTD., priority 2021, published 2024)

Columns and labels:
Format in all cases: cell-based
[1] = test system: Ba/F3 cells expressing EGFR-wt; assay: Growth inhibition (GI50) of Ba/F3 cells expressing EGFR-wt, Celltiter glo; details: Mus musculus, BaF3, 72 h
Method in brief: (§1)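 We seed Ba/F3 transfectants at 100,000 cells/ml, dose them with ten 4-fold compound dilutions (2 mM top stock, 0.5% DMSO) after 4 h, and culture for 72 h at 37 °C. CellTiter-Glo then reports viable cell number, from which the GI50 is fitted.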

[2] = test system: Ba/F3 cells expressing del19/T790M/C797S (EGFR-DTC); assay: Growth inhibition (GI50) of Ba/F3 cells expressing del19/T790M/C797S (EGFR-DTC), Celltiter glo; details: Mus musculus, BaF3, 72 h
Method in brief: as §1

[3] = test system: Ba/F3 cells expressing L858R/T790M/C797S (EGFR-LTC); assay: Growth inhibition (GI50) of Ba/F3 cells expressing L858R/T790M/C797S (EGFR-LTC), Celltiter glo; details: Mus musculus, BaF3, 72 h
Method in brief: as §1

[4] = test system: Ba/F3 cells expressing del19/T790M (EGFR-DT); assay: Growth inhibition (GI50) of Ba/F3 cells expressing del19/T790M (EGFR-DT), Celltiter glo; details: Mus musculus, BaF3, 72 h
Method in brief: as §1

[5] = test system: Ba/F3 cells expressing L858R/T790M (EGFR-LT); assay: Growth inhibition (GI50) of Ba/F3 cells expressing L858R/T790M (EGFR-LT), Celltiter glo; details: Mus musculus, BaF3, 72 h
Method in brief: as §1

parental Ba/F3 cell line = assay: Growth inhibition (GI50) of the parental Ba/F3 cell line (not introduced with EGFR variants), Celltiter glo; details: Mus musculus, BaF3, 72 h, parental Ba/F3 cells
Method in brief: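 Viable cell count by CellTiter-Glo after 72 h at 37 °C gave GI50 values (μM, 50% growth inhibition). Cells lacking EGFR variants were seeded at 100,000 cells/ml and dosed 4 h later with 4-fold serial dilutions from a 2 mM stock, 0.5% DMSO.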

| GI50 [1] | GI50 [2] | GI50 [3] | GI50 [4] | GI50 [5] | SMILES | GI50 (parental Ba/F3 cell line) |
| --- | --- | --- | --- | --- | --- | --- |
| 100 to 500 nM | 25 to 100 nM | 1 to 25 nM | 1 to 25 nM | 1 to 25 nM | COc1cc(N2CCC(N3CCN(C4CC4)CC3)CC2)c(C)cc1Nc1ncc(Br)c(Nc2cc3c(cc2NS(C)(=O)=O)CCO3)n1 [Example 212, N-(6-((5-bromo-2-((4-(4-(4-cyclopropylpiperazin-1-yl)piperidin-1-yl)-2-methoxy-5-methylphenyl)amino)pyrimidin-4-yl)amino)-2,3-dihydrobenzofuran-5-yl)methanesulfonamide] | 2000 to 10000 nM |
| 100 to 500 nM | 25 to 100 nM | 25 to 100 nM | 1 to 25 nM | 100 to 500 nM | Cc1cc(Nc2ncc(Br)c(Nc3cc4c(cc3NS(C)(=O)=O)CCO4)n2)c(Cl)cc1N1CCC(N2CCC(N(C)C)C2)CC1 (stereo not drawn) [Example 213, N-(6-((5-bromo-2-((2-chloro-4-(4-(3-(dimethylamino)pyrrolidin-1-yl)piperidin-1-yl)-5-methylphenyl)amino)pyrimidin-4-yl)amino)-2,3-dihydrobenzofuran-5-yl)methanesulfonamide] | 2000 to 10000 nM |
| 100 to 500 nM | 25 to 100 nM | 25 to 100 nM | 1 to 25 nM | 1 to 25 nM | Cc1cc(Nc2ncc(Br)c(Nc3cc4c(cc3NS(C)(=O)=O)CCO4)n2)c(Cl)cc1N1CCC(N2CCCC(N(C)C)C2)CC1 (stereo not drawn) [Example 214, N-(6-((5-bromo-2-((2-chloro-4-(3-(dimethylamino)-[1,4′-bipiperidin]-1′-yl)-5-methylphenyl)amino)pyrimidin-4-yl)amino)-2,3-dihydrobenzofuran-5-yl)methanesulfonamide] | 2000 to 10000 nM |
| 100 to 500 nM | 25 to 100 nM | 25 to 100 nM | 1 to 25 nM | 25 to 100 nM | COc1cc(N2CCC(N3CCNCC3)CC2)c(C)cc1Nc1ncc(Br)c(Nc2cc3c(cc2NS(C)(=O)=O)CCO3)n1 [Example 215, N-(6-((5-bromo-2-((2-methoxy-5-methyl-4-(4-(piperazin-1-yl)piperidin-1-yl)phenyl)amino)pyrimidin-4-yl)amino)-2,3-dihydrobenzofuran-5-yl)methanesulfonamide] | 2000 to 10000 nM |
| 25 to 100 nM | 1 to 25 nM | 25 to 100 nM | 1 to 25 nM | 1 to 25 nM | COc1cc(N2CCC(N3CCCC(N(C)C)C3)CC2)c(Cl)cc1Nc1ncc(Br)c(Nc2cc3c(cc2NS(C)(=O)=O)CCO3)n1 (stereo not drawn) [Example 216, N-(6-((5-bromo-2-((5-chloro-4-(3-(dimethylamino)-[1,4′-bipiperidin]-1′-yl)-2-methoxyphenyl)amino)pyrimidin-4-yl)amino)-2,3-dihydrobenzofuran-5-yl)methanesulfonamide] | 2000 to 10000 nM |
| 100 to 500 nM | 1 to 25 nM | 1 to 25 nM | 1 to 25 nM | 1 to 25 nM | CN1CCN(C2CCN(c3cc(Cl)c(Nc4ncc(Br)c(Nc5cc6c(cc5NS(C)(=O)=O)CCO6)n4)cc3Cl)CC2)CC1 [Example 217, N-(6-((5-bromo-2-((2,5-dichloro-4-(4-(4-methylpiperazin-1-yl)piperidin-1-yl)phenyl)amino)pyrimidin-4-yl)amino)-2,3-dihydrobenzofuran-5-yl)methanesulfonamide] | 500 to 2000 nM |
| 100 to 500 nM | 1 to 25 nM | 100 to 500 nM | 1 to 25 nM | 25 to 100 nM | COc1cc(N2CCC(N3CCCC(N(C)C)C3)CC2)c(C)cc1Nc1ncc(Cl)c(Nc2cc3c(cc2NS(C)(=O)=O)CCO3)n1 (stereo not drawn) [Example 218, N-(6-((5-chloro-2-((4-(3-(dimethylamino)-[1,4′-bipiperidin]-1′-yl)-2-methoxy-5-methylphenyl)amino)pyrimidin-4-yl)amino)-2,3-dihydrobenzofuran-5-yl)methanesulfonamide] | 500 to 2000 nM |
| 100 to 500 nM | 1 to 25 nM | 25 to 100 nM | 1 to 25 nM | 1 to 25 nM | COc1cc(N2CCC(N3CCCC(N(C)C)C3)CC2)c(Cl)cc1Nc1ncc(Cl)c(Nc2cc3c(cc2NS(C)(=O)=O)CCO3)n1 (stereo not drawn) [Example 219, N-(6-((5-chloro-2-((5-chloro-4-(3-(dimethylamino)-[1,4′-bipiperidin]-1′-yl)-2-methoxyphenyl)amino)pyrimidin-4-yl)amino)-2,3-dihydrobenzofuran-5-yl)methanesulfonamide] | 2000 to 10000 nM |
| 500 to 2000 nM | 1 to 25 nM | 25 to 100 nM | 25 to 100 nM | 25 to 100 nM | COc1cc(N2CCC(N3CCN(C(F)(F)F)CC3)CC2)c(C)cc1Nc1ncc(Cl)c(Nc2cc3c(cc2NS(C)(=O)=O)CCO3)n1 [Example 225, N-(6-((5-chloro-2-((2-methoxy-5-methyl-4-(4-(4-(trifluoromethyl)piperazin-1-yl)piperidin-1-yl)phenyl)amino)pyrimidin-4-yl)amino)-2,3-dihydrobenzofuran-5-yl)methanesulfonamide] | 2000 to 10000 nM |
| 1 to 25 nM | 1 to 25 nM | 25 to 100 nM | 1 to 25 nM | 1 to 25 nM | Cc1cc(Nc2ncc(Br)c(Nc3cc(Cl)ccc3N(C)S(C)(=O)=O)n2)c(Cl)cc1N1CCC(N2CCC(N(C)C)C2)CC1 (stereo not drawn) [Example 227, N-(2-((5-bromo-2-((2-chloro-4-(4-(3-(dimethylamino)pyrrolidin-1-yl)piperidin-1-yl)-5-methylphenyl)amino)pyrimidin-4-yl)amino)-4-chlorophenyl)-N-methylmethanesulfonamide] | 100 to 500 nM |

The remaining lines, values behind:

| SMILES | GI50 [1] | GI50 [2] | GI50 [3] | GI50 [4] | GI50 [5] | GI50 (parental Ba/F3 cell line) |
| --- | --- | --- | --- | --- | --- | --- |
| COc1cc(N2CCC(N3CCN(C)CC3)CC2)ccc1Nc1ncc(Cl)c(Nc2cc3c(cc2NS(C)(=O)=O)CCO3)n1 [Example 220, N-(6-((5-chloro-2-((2-methoxy-4-(4-(4-methylpiperazin-1-yl)piperidin-1-yl)phenyl)amino)pyrimidin-4-yl)amino)-2,3-dihydrobenzofuran-5-yl)methanesulfonamide] | 500 to 2000 nM | 100 to 500 nM | 100 to 500 nM | 100 to 500 nM | 25 to 100 nM | 25 to 100 nM |
| CN1CCN(C2CCN(c3ccc(Nc4ncc(Cl)c(Nc5cc6c(cc5NS(C)(=O)=O)CCO6)n4)c(Cl)c3)CC2)CC1 [Example 221, N-(6-((5-chloro-2-((2-chloro-4-(4-(4-methylpiperazin-1-yl)piperidin-1-yl)phenyl)amino)pyrimidin-4-yl)amino)-2,3-dihydrobenzofuran-5-yl)methanesulfonamide] | 100 to 500 nM | 25 to 100 nM | 25 to 100 nM | 25 to 100 nM | 25 to 100 nM | 500 to 2000 nM |
| COc1cc(N2CCC(N3CCN(C)CC3)CC2)c(F)cc1Nc1ncc(Cl)c(Nc2cc3c(cc2NS(C)(=O)=O)CCO3)n1 [Example 222, N-(6-((5-chloro-2-((5-fluoro-2-methoxy-4-(4-(4-methylpiperazin-1-yl)piperidin-1-yl)phenyl)amino)pyrimidin-4-yl)amino)-2,3-dihydrobenzofuran-5-yl)methanesulfonamide] | 100 to 500 nM | 1 to 25 nM | 100 to 500 nM | 1 to 25 nM | 1 to 25 nM | 2000 to 10000 nM |
| CN1CCN(C2CCN(c3ccc4cc(Nc5ncc(Cl)c(Nc6cc7c(cc6NS(C)(=O)=O)CCO7)n5)ccc4n3)CC2)CC1 [Example 223, N-(6-((5-chloro-2-((2-(4-(4-methylpiperazin-1-yl)piperidin-1-yl)quinolin-6-yl)amino)pyrimidin-4-yl)amino)-2,3-dihydrobenzofuran-5-yl)methanesulfonamide] | 2000 to 10000 nM | 500 to 2000 nM | 500 to 2000 nM | 100 to 500 nM | 100 to 500 nM | 2000 to 10000 nM |
| COc1cc(N2CCC(Nc3ccnn3C)CC2)c(C)cc1Nc1ncc(Cl)c(Nc2cc3c(cc2NS(C)(=O)=O)CCO3)n1 [Example 224, N-(6-((5-chloro-2-((2-methoxy-5-methyl-4-(4-((1-methyl-1H-pyrazol-5-yl)amino)piperidin-1-yl)phenyl)amino)pyrimidin-4-yl)amino)-2,3-dihydrobenzofuran-5-yl)methanesulfonamide] | 500 to 2000 nM | 25 to 100 nM | 25 to 100 nM | 100 to 500 nM | 25 to 100 nM | 100 to 500 nM |
| CN1CCN(C2CCN(c3cc(Cl)c(Nc4ncc(Cl)c(Nc5cc(Cl)ccc5N(C)S(C)(=O)=O)n4)cc3Cl)CC2)CC1 [Example 226, N-(4-chloro-2-((5-chloro-2-((2,5-dichloro-4-(4-(4-methylpiperazin-1-yl)piperidin-1-yl)phenyl)amino)pyrimidin-4-yl)amino)phenyl)-N-methylmethanesulfonamide] | 100 to 500 nM | 25 to 100 nM | 25 to 100 nM | 25 to 100 nM | 25 to 100 nM | 500 to 2000 nM |
| CN1CCN(C2CCN(c3cc(Cl)c(Nc4ncc(Br)c(Nc5cc(Cl)ccc5N(C)S(C)(=O)=O)n4)cc3Cl)CC2)CC1 [Example 228, N-(2-((5-bromo-2-((2,5-dichloro-4-(4-(4-methylpiperazin-1-yl)piperidin-1-yl)phenyl)amino)pyrimidin-4-yl)amino)-4-chlorophenyl)-N-methylmethanesulfonamide] | 100 to 500 nM | 1 to 25 nM | 25 to 100 nM | 25 to 100 nM | 1 to 25 nM | 100 to 500 nM |
